The record followed here is patent publication US9119884B2, “LLP2A-bisphosphonate conjugates for osteoporosis treatment” (The Regents of the University of California, priority 2010, dated 2015).

Assay [1] relates to C57BL/6 mice. Kind of assay: Guiding GFP-labeled mouse MSCs to bone. Particulars: for osteocalcin levels: 0.9 nmol/mouse I.P. one hour after GFP-MSC I.V. The format is in vivo. As for the experimental part: LLP2A-Ale or LLP2A-Ale (1) were dissolved in 0.9% normal saline and injected I.P. to the mice one hour after MSC at a final solution of 0.9 nmol/mouse. Mice were sacrificed either at 3 days or 3 weeks. Osteocalcin, a bone formation marker, was measured at both 3 days and 3 weeks post-treatments. The lumbar vertebral bodies from the 3-day treatment groups were frozen and sectioned with cryostat. The sections were then stained with anti-GFP antibody. The transplanted MSCs were stained in brown.

Assay [2] deals with 10-week-old ovariectomized (OVX) mice. As to the kind of experiment: Ovariectomized (OVX) mouse model. Format: in vivo. An excerpt: FIG. 21 depicts histomorphometric analyses of the 5th lumbar vertebral bodies after LLP2A-Ale treatment of 10-week-old ovariectomized (OVX) mice, showing increases in osteoblast numbers, activities and bone formation rate/bone surface (BFR/BS) post-treatment. Analyses included trabecular bone area (%), osteoblast surface (Ob/BS), mineralizing surface (MS/BS) activities and BFR/BS (P<0.05).
Representative fluorescent images from the trabecular bone at the 5th LVB (Top panel: white arrowheads illustrate osteoblasts; Bottom panel: yellow arrows illustrate double labeled trabecular bone surfaces).
FIG. 23 depicts histomorphometry analyses of the right mid-femurs included bone formation at the endosteal (Ec) or periosteal (Ps.) bone surfaces, and cortical bone thickness of 10-week-old ovariectomized (OVX) mice. […] Three-point bending was performed on left femurs to obtain maximum stress of the femurs.
Short yellow arrows illustrated double labeled endocortical bone surfaces. (a, p<0.05 versus Sham; b, P<0.05 vs. OVX+PBS, c, P<0.05 vs. OVX+LLP2A; d, P<0.05 vs. OVX+Ale. Data are represented as Mean±SD).

Assay [3] deals with C57BL/6 mice. As to the kind of experiment: Age-related trabecular bone loss after peak bone acquisition. The format is in vivo, mouse. From the text: FIGS. 18A and B show LLP2A-Ale increases bone formation parameters at the trabecular DF (P<0.05) in C57BL/6 mice.

The structures appear in SMILES notation.

As for `Cc1ccccc1NC(=O)Nc1ccc(CC(=O)N[C@@H](CCCCNC(=O)/C=C/c2cccnc2)C(=O)N[C@@H](CCCC(=O)O)C(=O)NC2(C(=O)NCCOCCOCCNC(=O)CCC(=O)NCCOCCOCCNC(=O)CCC(=O)N[C@@H](CCCCNC(=O)[C@H](N)CSC3CC(=O)N(CC4CCC(C(=O)NCCCC(O)(P(=O)(O)O)P(=O)(O)O)CC4)C3=O)C(N)=O)CCCCC2)cc1` (stereo partly shown) [LLP2A-Ale, LLP2A-Alendronate], in the assay with C57BL/6 mice [1] (lumbar vertebral bodies, three days), the “location of transplanted MSCs (anti-GFP staining)” value was “observed within bone marrow and adjacent to the trabecular bone surfaces”. In addition, the osteocalcin levels result with C57BL/6 mice [1] (three days) and in the assay with C57BL/6 mice [1] (three weeks) was “significantly increased” each time. The “osteoblast numbers, activities and bone formation rate/bone surface (BFR/BS)” value in assay [2] (5th lumbar vertebral bodies) is listed as “increases”. Moreover, in assay [2] (femur three-point bending, single IV injection of conjugate or four weeks of PTH), the maximum stress entry is recorded as “not significantly altered”. For the same molecule, the endocortical bone formation result in assay [2] (mid-femur, vs OVX) is “increases”. Also, the cortical bone thickness result in assay [2] (mid-femur, single IV injection of conjugate or four weeks of PTH) was “not significantly altered”. In addition, in the assay on C57BL/6 mice [3] (P<0.05), the “bone formation parameters at the trabecular DF” value is given as “increases”. The “age-related trabecular bone (loss) after peak bone acquisition” value in the assay with C57BL/6 mice [3] (mouse, in vivo) is “prevents”. Further, in the assay with C57BL/6 mice [3] (mouse, in vivo), the “bone formation parameters at trabecular bone surfaces in the lumbar vertebral bodies (LVB)” value was “increases”.
